# Results from patent US6855710B2, “Substituted indolines with an inhibitory effect on various kinases and complexes of CDKs” (Boehringer Ingelheim Pharma KG, priority 1998, dated 2005).
row,Structure (SMILES),melting point
1,"CC(=O)O.N=C(N)c1ccc(N/C(=C2\C(=O)Nc3ccccc32)c2ccccc2)cc1 [Example 62, (Z)-3-{1-[N-(4-amidinophenyl)-amino]-1-phenyl-methylidene}-2-indolinone-hydroacetate]",> 260 °C (dec.)
2,"CC(=O)NCc1cccc(N/C(=C2\C(=O)Nc3ccc([N+](=O)[O-])cc32)c2ccccc2)c1 [Example 138, (Z)-3-[1-(3-acetylaminomethyl-phenylamino)-1-phenyl-methylidene]-5-nitro-2-indolinone]",238 °C
3,CN(C)Cc1ccc(N/C(=C2\C(=O)Nc3ccc([N+](=O)[O-])cc32)c2ccc([N+](=O)[O-])cc2)cc1,233 °C
4,"CN(CC(=O)O)C(=O)c1cccc(N/C(=C2\C(=O)Nc3ccccc32)c2ccccc2)c1 [Example 26, (Z)-3-{1-[3-(N-carboxymethyl-N-methyl-aminocarbonyl)-phenyl-amino]-1-phenyl-methylidene}-2-indolinone]",218 to 220 °C
5,"CN(C)C(=O)c1cccc(N/C(=C2\C(=O)Nc3ccccc32)c2ccccc2)c1 [Example 22, (Z)-3-[1-(3-dimethylaminocarbonyl-phenylamino)-1-phenyl-methylidene]-2-indolinone]",261 to 263 °C
6,"C[C@@H](NC(=O)OC(C)(C)C)c1ccc(N/C(=C2\C(=O)Nc3ccc([N+](=O)[O-])cc32)c2ccccc2)cc1 [Example 125, (Z,R)-3-{1-[4-(1-tert.butoxycarbonylamino-ethyl)-phenylamino]-1-phenyl-methylidene}-5-nitro-2-indolinone]",247 to 249 °C
7,"O=C1Nc2ccccc2/C1=C(/Nc1ccccc1C(=O)O)c1ccccc1 [Example 8, (Z)-3-[1-(2-carboxy-phenylamino)-1-phenyl-methylidene]-2-indolinone]",227 to 230 °C
8,"CN(C(=O)CN1CCOCC1)c1ccc(N/C(=C2\C(=O)Nc3ccc([N+](=O)[O-])cc32)c2ccccc2)cc1 [Example 102, (Z)-3-{1-[4-(N-morpholinomethylcarbonyl-N-methyl-amino)-phenylamino]-1-phenyl-methylidene}-5-nitro-2-indolinone]",293 to 295 °C
9,"CN(C)Cc1cccc(N/C(=C2\C(=O)Nc3ccc([N+](=O)[O-])cc32)c2ccccc2)c1 [Example 107, (Z)-3-[1-(3-dimethylaminomethyl-phenylamino)-1-phenyl-methylidene]-5-nitro-2-indolinone]",214 to 217 °C
10,"CN(C(=O)CN1CCN(Cc2ccccc2)CC1)c1ccc(N/C(=C2\C(=O)Nc3ccc([N+](=O)[O-])cc32)c2ccccc2)cc1 [Example 104, (Z)-3-{1-[4-(N-(4-benzylpiperazinomethylcarbonyl)-N-methyl-amino)-phenylamino]-1-phenyl-methylidene}-5-nitro-2-indolinone]",201 to 203 °C
11,"CCOC(=O)CCNCc1cccc(N/C(=C2\C(=O)Nc3ccc([N+](=O)[O-])cc32)c2ccccc2)c1 [Example 112, (Z)-3-{1-[3-(2-ethoxycarbonyl-ethylaminomethyl)-phenylamino]-1-phenyl-methylidene}-5-nitro-2-indolinone]",142 to 145 °C
12,CNCC(=O)NCc1ccc(N/C(=C2\C(=O)Nc3ccc([N+](=O)[O-])cc32)c2ccccc2)cc1.Cl,195 to 198 °C
13,"CC(=O)N(C)c1ccc(N/C(=C2\C(=O)Nc3ccc([N+](=O)[O-])cc32)c2ccccc2)cc1 [Example 98, (Z)-3-{1-[4-(N-acetyl-N-methyl-amino)-phenylamino]-1-phenyl-methylidene}-5-nitro-2-indolinone]",305 to 307 °C
14,"C[C@H](NC(=O)OC(C)(C)C)c1ccc(N/C(=C2\C(=O)Nc3ccc([N+](=O)[O-])cc32)c2ccccc2)cc1 [Example 123, (Z,S)-3-{1-[4-(1-tert.butoxycarbonylamino-ethyl)-phenylamino]-1-phenyl-methylidene}-5-nitro-2-indolinone]",247 to 249 °C (dec.)

# The remaining lines, values ahead:
row,melting point,Structure (SMILES)
1,214 to 216 °C,"CN(C)CCS(=O)(=O)Nc1ccc(N/C(=C2\C(=O)Nc3ccccc32)c2ccccc2)cc1 [Example 379, (Z)-3-{1-[4-(2-dimethylamino-ethylsulphonylamino)-phenylamino]-1-phenyl-methylidene}-2-indolinone]"
2,187 to 189 °C,"CN(CCCOc1ccc(N/C(=C2\C(=O)Nc3ccccc32)c2ccccc2)cc1)Cc1ccccc1 [Example 288, (Z)-3-{1-[4-(3-(N-benzyl-N-methyl-amino)-propyloxy)-phenylamino]-1-phenyl-methylidene}-2-indolinone]"
3,206 to 208 °C,"COc1cccc(/C(Nc2ccc(CN(C)C)cc2)=C2/C(=O)Nc3ccc([N+](=O)[O-])cc32)c1 [Example 218, (Z)-3-[1-(4-dimethylaminomethyl-phenylamino)-1-(3-methoxyphenyl)-methylidene]-5-nitro-2-indolinone]"
4,218 °C,"O=CN(CCN1CCOCC1)c1ccc(N/C(=C2\C(=O)Nc3ccccc32)c2ccccc2)cc1 [Example 347, (Z)-3-{1-[4-(N-(2-morpholinoethyl)-N-formyl-amino)-phenylamino]-1-phenyl-methylidene}-2-indolinone]"
5,306 to 308 °C,"CN(c1ccc(N/C(=C2\C(=O)Nc3ccc([N+](=O)[O-])cc32)c2ccccc2)cc1)S(C)(=O)=O [Example 197, (Z)-3-{1-[4-(N-methyl-N-methylsulphonyl-amino)-phenylamino]-1-phenyl-methylidene}-5-nitro-2-indolinone]"
6,145 to 147 °C,"CN(C)CCNC(=O)c1ccc(N/C(=C2\C(=O)Nc3ccccc32)c2ccccc2)cc1 [Example 390, (Z)-3-{1-[4-(2-dimethylamino-ethylaminocarbonyl)-phenylamino]-1-phenyl-methylidene}-2-indolinone]"
7,225 to 227 °C,"CC(=O)NCc1ccc(/C(Nc2ccc(N(CCN(C)C)S(C)(=O)=O)cc2)=C2/C(=O)Nc3ccccc32)cc1 [Example 427, (Z)-3-{1-[4-(N-(2-dimethylaminoethyl)-N-methylsulphonyl-amino)-phenylamino]-1-(4-acetylaminomethyl-phenyl)-methylidene}-2-indolinone]"
8,247 to 249 °C,"CCOC(=O)CNS(=O)(=O)c1ccc(N/C(=C2\C(=O)Nc3ccc([N+](=O)[O-])cc32)c2ccccc2)cc1 [Example 410, (Z)-3-{1-[4-(ethoxycarbonylmethylaminosulphonyl)-phenylamino]-1-phenyl-methylidene}-5-nitro-2-indolinone]"
9,238 to 240 °C,"COC(=O)Cc1ccc(N/C(=C2\C(=O)Nc3ccc([N+](=O)[O-])cc32)c2ccccc2)cc1 [Example 180, (Z)-3-[1-(4-methoxycarbonylmethyl-phenylamino)-1-phenyl-methylidene]-5-nitro-2-indolinone]"
10,208 to 213 °C,"CCOC(=O)C1CCN(CCc2ccc(N/C(=C3\C(=O)Nc4ccc([N+](=O)[O-])cc43)c3ccccc3)cc2)CC1 [Example 262, (Z)-3-{1-[4-(2-(4-ethoxycarbonyl-piperidino)-ethyl)-phenylamino]-1-phenyl-methylidene}-5-nitro-2-indolinone]"
11,249 to 250 °C,"CS(=O)(=O)N(CCN1CCOCC1)c1ccc(N/C(=C2\C(=O)Nc3ccccc32)c2ccccc2)cc1 [Example 189, (Z)-3-{1-[4-(N-(2-morpholinoethyl)-N-methylsulphonyl-amino)-phenylamino]-1-phenyl-methylidene}-2-indolinone]"
12,222 to 225 °C,"O=C1Nc2ccc([N+](=O)[O-])cc2/C1=C(/Nc1ccc(CN2CC=CCC2)cc1)c1ccccc1 [Example 270, (Z)-3-{1-[4-(3,6-Dihydro-2H-pyridin-1-ylmethyl)-phenylamino]-1-phenyl-methylidene}-5-nitro-2-indolinone]"
13,268 to 270 °C,"CCCC(=O)N(CCN(C)C)c1ccc(N/C(=C2\C(=O)Nc3ccccc32)c2ccccc2)cc1 [Example 343, (Z)-3-{1-[4-(N-(2-dimethylaminoethyl)-N-propylcarbonyl-amino)-phenylamino]-1-phenyl-methylidene}-2-indolinone]"
14,254 °C,"NS(=O)(=O)c1ccc(N/C(=C2\C(=O)Nc3ccccc32)c2ccccc2)cc1 [Example 396, (Z)-3-{1-[4-(aminosulphonyl)-phenylamino]-1-phenyl-methylidene}-2-indolinone]"
15,203 to 205 °C,"CN(C)CCN(c1ccc(N/C(=C2\C(=O)Nc3ccccc32)c2ccc(CN)cc2)cc1)S(C)(=O)=O [Example 426, (Z)-3-{1-[4-(N-(2-dimethylaminoethyl)-N-methylsulphonyl-amino)-phenylamino]-1-(4-aminomethyl-phenyl)-methylidene}-2-indolinone]"
16,220 to 222 °C,"O=C(O)CCNCc1ccc(N/C(=C2\C(=O)Nc3ccc([N+](=O)[O-])cc32)c2ccccc2)cc1 [Example 242, (Z)-3-{1-[4-(2-carboxy-ethylaminomethyl)-phenylamino]-1-phenyl-methylidene}-5-nitro-2-indolinone]"
17,197 °C,"CN(C)CCCN(c1cccc(N/C(=C2\C(=O)Nc3ccccc32)c2ccc(CN)cc2)c1)S(C)(=O)=O [Example 424, (Z)-3-{1-[3-(N-(3-dimethylaminopropyl)-N-methylsulphonyl-amino)-phenylamino]-1-(4-aminomethyl-phenyl)-methylidene}-2-indolinone]"
18,178 to 180 °C,"CCCS(=O)(=O)N(CC(=O)N(C)C)c1ccc(N/C(=C2\C(=O)Nc3ccccc32)c2ccccc2)cc1 [Example 305, (Z)-3-{1-[4-(N-(dimethylaminocarbonylmethyl)-N-propylsulphonyl-amino)-phenylamino]-1-phenyl-methylidene}-2-indolinone]"
19,213 to 216 °C,"CN(Cc1ccc(N/C(=C2\C(=O)Nc3ccc([N+](=O)[O-])cc32)c2ccccc2)cc1)c1ccccn1 [Example 235, (Z)-3-{1-[4-(N-methyl-N-(2-pyridyl)-aminomethyl)-phenylamino]-1-phenyl-methylidene}-5-nitro-2-indolinone]"
20,293 to 294 °C,"O=C1Nc2ccccc2/C1=C(/Nc1ccc(S(=O)(=O)N2CCCC2)cc1)c1ccccc1 [Example 397, (Z)-3-{1-[4-(pyrrolidin-1-ylsulphonyl)-phenylamino]-1-phenyl-methylidene}-2-indolinone]"
